What is called pest or weed control is how far the test organism was held down. Read a high pest or weed control as a strong effect.

Holding throughout (type): in vivo
For one assay, the system named is Musca domestica. The experiment in a line: Test Example 2: treated filter paper with sucrose bait, death rate of Musca domestica. To be noted: 500 ppm test solution, 0.7 ml on filter paper, 10 female imagoes, after 24 hours. How it is done:
Preparations of the present compounds (2), (3), (5), (6), (9), (10), (11), (12), (13), (14), (15), (16), (17), (19), (20), (24), (25), (26), (28), (29), (30) and (31) obtained according to Formulation Example 36 were diluted so that the active ingredient concentration was 500 ppm to obtain test solutions.
A filter paper having a diameter of 5.5 cm was spread on the bottom of a polyethylene cup having a diameter of 5.5 cm and 0.7 ml of the test solution was added dropwise onto the filter paper. As a bait 30 mg of sucrose was uniformly placed on the filter paper. Into the polyethylene cup, 10 female imagoes of Musca domestica were released and the cup was sealed with a lid. After 24 hours, the number of surviving Musca domestica was examined and the death rate of the pest was calculated.
As a result, in treatments with the present compounds (2), (3), (5), (6), (9), (10), (11), (12), (13), (14), (15), (16), (17), (19), (20), (24), (25), (26), (28), (29), (30) and (31), the death rate of the pest was 70% or more.

Another assay relates to Blattalla germanica. Description: Test Example 3: treated filter paper with sucrose bait, death rate of Blattalla germanica. To be noted: 144 h; 500 ppm test solution, 0.7 ml on filter paper; 2 male imagoes; after 6 days. On the procedure:
Preparations of the present compounds (2), (3), (5), (6), (10), (11), (12), (14), (15), (16), (17), (19), (20), (24), (25), (26), (29), (30) and (31) obtained according to Formulation Example 36 were diluted so that the active ingredient concentration was 500 ppm to obtain test solutions.
A filter paper having a diameter of 5.5 cm was spread on the bottom of a polyethylene cup having a diameter of 5.5 cm and 0.7 ml of the test solution was added dropwise onto the filter paper. As a bait 30 mg of sucrose was uniformly placed on the filter paper. Into the polyethylene cup, 2 male imagoes of Blattalla germanica were released and the cup was sealed with a lid. After 6 days, the number of surviving Blattalla germanica was examined and the death rate of the pest was calculated.
As a result, in treatments with the present compounds (2), (3), (5), (6), (10), (11), (12), (14), (15), (16), (17), (19), (20), (24), (25), (26), (29), (30) and (31), the death rate of the pest was 100%.

The subject of another assay is Culex pipiens pallens. The experiment in a line: Test Example 4: larvae in treated water, death rate of Culex pipiens pallens. To be noted: 24 h, active ingredient concentration 3.5 ppm in water, 20 last-instar larvae, after one day. How it is done:
Preparations of the present compounds (1), (2), (3), (4), (5), (6), (9), (10), (11), (12), (14), (15), (16), (17), (19), (20), (22), (23), (24), (26), (27), (28), (29), (30) and (31) obtained according to Formulation Example 36 were diluted so that the active ingredient concentration was 500 ppm to obtain test solutions. To 100 mL of ion-exchanged water, 0.7 ml of the test solution was added (active ingredient concentration: 3.5 ppm). Into the solution, 20 last-instar larvae of Culex pipiens pallens were released. After one day, the number of surviving Culex pipiens pallens was examined and the death rate of the pest was calculated. As a result, in treatments with the present compounds (1), (2), (3), (4), (5), (6), (9), (10), (11), (12), (14), (15), (16), (17), (19), (20), (22), (23), (24), (26), (27), (28), (29), (30) and (31), the death rate of the pest was 90% or more.

On to `CSC(CCC(Cl)(C(N)=O)S(=O)(=O)CCC(F)(F)F)C(F)(F)F` (stereo not drawn) [present compound (29), 2-chloro-6,6,6-trifluoro-5-methylthio-2-(3,3,3-trifluoropropylsulfonyl)hexanamide], for which the pest or weed control at 500 ppm with Musca domestica is no less than 70%; with Blattalla germanica it was 100%. Further, the pest or weed control at 3.5 ppm in the assay on Culex pipiens pallens was no less than 90%.
Take `COC(=O)C(CCC(SC)C(F)(F)F)S(=O)(=O)CCC(F)(F)F` (stereo not drawn) [present compound (27), methyl 6,6,6-trifluoro-5-methylthio-2-(3,3,3-trifluoropropylsulfonyl)hexanoate]: in the assay with Culex pipiens pallens, the pest or weed control at 3.5 ppm was no less than 90%.
`COC(=O)C(Cl)(CCC(OC)C(F)(F)F)S(=O)(=O)CCC(F)(F)F` (stereo not drawn) [present compound (25), methyl 2-chloro-6,6,6-trifluoro-5-methoxy-2-(3,3,3-trifluoropropylsulfonyl)hexanoate]: the pest or weed control at 500 ppm in the assay on Musca domestica is no less than 70%; in the assay on Blattalla germanica, 100%.
As for `CSC(CCC(C#N)S(=O)(=O)CCC(F)(F)F)C(F)(F)F` (stereo not drawn) [present compound (30), 6,6,6-trifluoro-5-methylthio-2-(3,3,3-trifluoropropylsulfonyl)hexanenitrile], the pest or weed control at 500 ppm in the assay on Musca domestica was no less than 70%; in the assay on Blattalla germanica, 100%. In the assay with Culex pipiens pallens, this compound yielded a pest or weed control at 3.5 ppm of no less than 90%.
Compound `CCCC(CCC(Cl)(C(N)=O)S(=O)(=O)CCC(F)(F)F)C(F)(F)F` (stereo not drawn) [present compound (23), 2-chloro-5-(trifluoromethyl)-2-(3,3,3-trifluoropropylsulfonyl)octanamide] showed a pest or weed control at 3.5 ppm with Culex pipiens pallens of no less than 90%.
In the assay with Musca domestica, `COC(=O)C(Cl)(CCC(SC)C(F)(F)F)S(=O)(=O)CCC(F)(F)F` (stereo not drawn) [present compound (28), methyl 2-chloro-6,6,6-trifluoro-5-methylthio-2-(3,3,3-trifluoropropylsulfonyl)hexanoate] yielded a pest or weed control at 500 ppm of no less than 70%. The same compound displayed a pest or weed control at 3.5 ppm with Culex pipiens pallens of no less than 90%.
In the case of `COC(CCC(Cl)(C(N)=O)S(=O)(=O)CCC(F)(F)F)C(F)(F)F` (stereo not drawn) [present compound (26), 2-chloro-6,6,6-trifluoro-5-methoxy-2-(3,3,3-trifluoropropylsulfonyl)hexanamide], the values for the pest or weed control at 500 ppm with Musca domestica and in the assay on Blattalla germanica were no less than 70% and 100%, respectively. Also, the pest or weed control at 3.5 ppm in the assay on Culex pipiens pallens was no less than 90%.
Consider `CCC(CCC(Cl)(C(=O)OC)S(=O)(=O)CCC(F)(F)F)C(F)(F)F` (stereo not drawn) [present compound (5), methyl 2-chloro-5-trifluoromethyl-2-(3,3,3-trifluoropropylsulfonyl)heptanoate], for which the pest or weed control at 500 ppm with Musca domestica was no less than 70%; in the assay with Blattalla germanica, 100%. Also, the pest or weed control at 3.5 ppm in the assay with Culex pipiens pallens was no less than 90%.
In turn, `CC(C)(C)C(CCC(Cl)(C(N)=O)S(=O)(=O)CCC(F)(F)F)C(F)(F)F` (stereo not drawn) [present compound (9), 2-chloro-6,6-dimethyl-5-trifluoromethyl-2-(3,3,3-trifluoropropylsulfonyl)heptanamide] returned a pest or weed control at 500 ppm in the assay on Musca domestica of no less than 70%. Moreover, the pest or weed control at 3.5 ppm in the assay on Culex pipiens pallens was no less than 90%.
The compound `CCCC(CCC(Cl)(C(=O)OC)S(=O)(=O)CCC(F)(F)F)C(F)(F)F` (stereo not drawn) [present compound (22), methyl 2-chloro-5-(trifluoromethyl)-2-(3,3,3-trifluoropropylsulfonyl)octanoate] returned a pest or weed control at 3.5 ppm with Culex pipiens pallens of no less than 90%.
With `COC(=O)C(Cl)(CCC(C(C)C)C(F)(F)F)S(=O)(=O)CCC(F)(F)F` (stereo not drawn) [present compound (19), methyl 2-chloro-6-methyl-5-(trifluoromethyl)-2-(3,3,3-trifluoropropylsulfonyl)heptanoate], the values for the pest or weed control at 500 ppm in the assay on Musca domestica and in the assay on Blattalla germanica were no less than 70% and 100%, respectively. Also, in the assay on Culex pipiens pallens, the pest or weed control at 3.5 ppm is no less than 90%.
Taken in the same sequence, the figures for `CC(CCC(Cl)(C(N)=O)S(=O)(=O)CCC(F)(F)F)C(F)(F)C(F)(F)F` (stereo not drawn) [present compound (31), 2-chloro-6,6,7,7,7-pentafluoro-5-methyl-2-(3,3,3-trifluoropropylsulfonyl)heptanamide] were no less than 70%, 100% and no less than 90%.
The matching figures for `CCC(CCC(F)(C(N)=O)S(=O)(=O)CCC(F)(F)F)C(F)(F)F` (stereo not drawn) [present compound (12), 2-fluoro-5-(trifluoromethyl)-2-(3,3,3-trifluoropropylsulfonyl)heptanamide]: no less than 70%, 100% and no less than 90%.
The matching figures for `COC(=O)C(CCC(OC)C(F)(F)F)S(=O)(=O)CCC(F)(F)F` (stereo not drawn) [present compound (24), methyl 6,6,6-trifluoro-5-methoxy-2-(3,3,3-trifluoropropylsulfonyl)hexanoate]: no less than 70%, 100% and no less than 90%.
Take `CCC(CCC(Cl)(C(N)=O)S(=O)(=O)CCC(F)(F)F)C(F)(F)F` (stereo not drawn) [present compound (6), 2-chloro-5-trifluoromethyl-2-(3,3,3-trifluoropropylsulfonyl)heptanamide]: the values for the pest or weed control at 500 ppm in the assay with Musca domestica and in the assay on Blattalla germanica were no less than 70% and 100%, respectively. In addition, the pest or weed control at 3.5 ppm in the assay with Culex pipiens pallens was no less than 90%.
`COC(=O)C(CCC(C)C(F)(F)F)S(=O)(=O)CCC(F)(F)F` (stereo not drawn) [present compound (1), methyl 6,6,6-trifluoro-5-methyl-2-(3,3,3-trifluoropropylsulfonyl)hexanoate] gave a pest or weed control at 3.5 ppm in the assay on Culex pipiens pallens of no less than 90%.
For `CC(C)C(CCC(Cl)(C(N)=O)S(=O)(=O)CCC(F)(F)F)C(F)(F)F` (stereo not drawn) [present compound (20), 2-chloro-6-methyl-5-(trifluoromethyl)-2-(3,3,3-trifluoropropylsulfonyl)heptanamide], the figures for the pest or weed control at 500 ppm with Musca domestica and in the assay on Blattalla germanica were no less than 70% and 100%, respectively. This compound also yielded a pest or weed control at 3.5 ppm in the assay with Culex pipiens pallens of no less than 90%.
On to `CCC(CCC(C)(C(N)=O)S(=O)(=O)CCC(F)(F)F)C(F)(F)F` (stereo not drawn) [present compound (13), 2-methyl-5-(trifluoromethyl)-2-(3,3,3-trifluoropropylsulfonyl)heptanamide], for which the pest or weed control at 500 ppm in the assay with Musca domestica is no less than 70%.
`CCC(CCC(F)(C(=O)OC)S(=O)(=O)CCC(F)(F)F)C(F)(F)F` (stereo not drawn) [present compound (11), methyl 2-fluoro-5-(trifluoromethyl)-2-(3,3,3-trifluoropropylsulfonyl)heptanoate]: the pest or weed control at 500 ppm in the assay on Musca domestica is no less than 70%; in the assay on Blattalla germanica it was 100%. In the assay with Culex pipiens pallens, this compound returned a pest or weed control at 3.5 ppm of no less than 90%.
The matching figures for `COC(=O)C(Cl)(CCC(C)C(F)(F)F)S(=O)(=O)CCC(F)(F)F` (stereo not drawn) [present compound (2), methyl 2-chloro-6,6,6-trifluoro-5-methyl-2-(3,3,3-trifluoropropylsulfonyl)hexanoate]: no less than 70%, 100% and no less than 90%.
Compound `CCC(CCC(C(=O)OC)S(=O)(=O)CCC(F)(F)F)C(F)(F)F` (stereo not drawn) [present compound (4), methyl 5-trifluoromethyl-2-(3,3,3-trifluoropropylsulfonyl)heptanoate] came in with a pest or weed control at 3.5 ppm with Culex pipiens pallens of no less than 90%.

These data come from patent publication US8247612B2, “Organic sulfur compound and its use for controlling harmful arthropod” (Sumitomo Chemical Company, Limited, priority 2007, dated 2012).
